Legend:
[1] = tested on: Green Peach Aphid (Myzus persicae); test: Insecticidal test for green peach aphid in foliar spray assay; type: in vivo; conditions: 72 h, 200 ppm foliar spray on cabbage seedlings, live aphids counted after three days, Abbott's corrected % control, read-out: MYZUPE % Ctrl @ 200 ppm
Description: Certain molecules disclosed in this document were tested against MYZUPE using procedures described in the following example. In the reporting of the results, the “MYZUPE, APHIGO and BEMITA Rating Table” was used (See Table Section).
Cabbage seedlings grown in 3-inch pots, with 2-3 small (3-5 cm) true leaves, were used as test substrate. The seedlings were infested with 20-50 green peach aphids (wingless adult and nymph stage) one day prior to chemical application. Four pots with individual seedlings were used for each treatment. Compounds (2 mg) were dissolved in 2 mL of acetone/methanol (1:1) solvent, forming stock solutions of 1000 ppm. The stock solutions were diluted 5× with 0.025% Tween 20 in H2O to obtain the test solution at 200 ppm. A hand-held Devilbiss sprayer was used for spraying a solution to both sides of cabbage leaves until runoff. Reference plants (solvent check) were sprayed with the diluent only. Treated plants were held in a holding room for three days at approximately 25° C. and 40% relative humidity (RH) prior to grading. Evaluation was conducted by counting the number of live aphids per plant under a microscope. Insecticidal activity data presented in Table 3 were generated by using Abbott's correction formula: Corrected%Control=100*(X−Y)/X • where X=No. of live aphids on solvent check plants • Y=No. of live aphids on treated plants

[2] = tested on: Cotton Aphid (Aphis gossypii); test: Insecticidal test for cotton aphid in a foliar spray assay; type: in vivo; conditions: 72 h, 200 ppm foliar spray on squash or cotton seedlings, live aphids counted after three days, Abbott's corrected % control, read-out: APHIGO % Ctrl @ 200 ppm
Description: Squash or cotton seedlings with fully expanded cotyledon leaves were trimmed to one cotyledon per plant and infested with wingless adult and nymph stage cotton aphid (APHIGO) one day prior to chemical application. Each plant was examined before chemical application to ensure uniform infestation (ca. 30-70 aphids per plant). Compounds (2 mg) were dissolved in 2 mL of acetone/methanol (1:1) solvent, forming stock solutions of 1000 ppm. The stock solutions were diluted 5× with 0.025% Tween 20 in H2O to obtain a solution at 200 ppm. A hand-held Devilbiss aspirator type sprayer was used to apply the spray solutions until runoff to both sides of the squash cotyledon leaves. Four plants (4 replications) were used for each concentration of each compound. Reference plants (solvent check) were sprayed with the diluent only. Treated plants were held in a holding room for three days at approximately 25° C. and 40% RH before the number of live cotton aphids on each plant was recorded. Insecticidal activity data presented in Table 3 were generated by using Abbott's correction formula: Corrected%Control=100*(X−Y)/X • where X=No. of live aphids on solvent check plants • Y=No. of live aphids on treated plants

[3] = tested on: Sweetpotato Whitefly (Bemisia tabaci); test: Insecticidal test for sweetpotato whitefly in foliar spray assay; type: in vivo; conditions: 200 ppm foliar spray on cotton plants infested with eggs, live nymphs counted after 8-9 days, Abbott's corrected % control, read-out: BEMITA % Ctrl @ 200 ppm
Description: Cotton plants were used as test substrate and were grown in 3-inch pots and pruned until only 1 small (3-5 cm) true leaf remained. The plants were then placed in a room with whitefly ([…]) adults and allowed to be infested with eggs. After a 2-3 day egg-laying period, plants were taken from the adult whitefly room and the adults were removed from the leaves using compressed air delivered through a hand-held Devilbiss sprayer (23 psi). Plants infested with eggs (100-300 eggs per plant) were placed in a controlled-environment room for 5-6 days at 82° F. and 50% RH until approximately 50% egg hatch. Four cotton plants (4 replicates) were used for each treatment. Compounds (2 mg) were dissolved in 1 mL of acetone solvent, forming stock solutions of 2000 ppm. The stock solutions were diluted 10× with 0.025% Tween 20 in H2O to obtain the test solution of 200 ppm. A hand-held Devilbiss sprayer was used for spraying a solution to both sides of cotton leaf until runoff. Reference plants (solvent check) were sprayed with the diluent only. Treated plants were held in a holding room for 8-9 days at approximately 82° F. and 50% RH prior to grading. Evaluation was conducted by counting the number of live nymphs per plant under a microscope. Insecticidal activity data presented in Table 3 were generated by using Abbott's correction formula: Corrected%Control=100*(X-Y)/X • where X=No. of live nymphs on solvent check plants • Y=No. of live nymphs on treated plants […]

CN(C(=O)C(C)(C)CO[Si](C)(C)C(C)(C)C)c1nnc(-c2cncc(F)c2)s1
melting point: 102 to 105 °C

CN(C(=O)CCSc1ccccc1)c1nnc(-c2cccnc2)s1 [Compound 10]
inhibition at 200 ppm [1]: 80 to 100%
inhibition at 200 ppm [2]: 0 to 80%

CCSC(C)CC(=O)N(C)c1nnc(-c2cccnc2)s1 (stereo not shown) [Compound 13]
inhibition at 200 ppm [1]: 80 to 100%
inhibition at 200 ppm [3]: 0 to 80%
inhibition at 200 ppm [2]: 80 to 100%

CCOC(=O)Nc1nnc(-c2cccnc2)s1 [Compound 14]
inhibition at 200 ppm [1]: < 0%
inhibition at 200 ppm [2]: 0 to 80%
melting point: 127 to 132 °C

CCOC(=O)N(C)c1nnc(-c2cccnc2)s1 [Compound 15]
inhibition at 200 ppm [1]: < 0%
inhibition at 200 ppm [2]: 0 to 80%
melting point: 162 to 164 °C

COCCOC(=O)N(C)c1nnc(-c2cccnc2)s1 [Compound 16]
inhibition at 200 ppm [1]: 0 to 80%
inhibition at 200 ppm [2]: 80 to 100%

CCSCC(C)(C)C(=O)N(C)c1nnc(-c2cccnc2)s1 [Compound 17]
inhibition at 200 ppm [1]: 80 to 100%
inhibition at 200 ppm [3]: 0 to 80%
inhibition at 200 ppm [2]: 80 to 100%

CS/C=C/C(=O)N(C)c1nnc(-c2cccnc2)s1 [Compound 21, (E)-N-methyl-3-(methylthio)-N-(5-(pyridin-3-yl)-1,3,4-thiadiazol-2-yl)acrylamide]
inhibition at 200 ppm [1]: 80 to 100%
inhibition at 200 ppm [2]: 0 to 80%

CN(C(=O)CCSC(c1ccccc1)(c1ccccc1)c1ccccc1)c1nnc(-c2cccnc2)s1 [Compound 22, N-methyl-N-(5-(pyridin-3-yl)-1,3,4-thiadiazol-2-yl)-3-(tritylthio)propanamide]
inhibition at 200 ppm [1]: 0 to 80%
inhibition at 200 ppm [2]: < 0%
melting point: 60 to 75 °C

CN(C(=O)CCNC#N)c1nnc(-c2cccnc2)s1 [Compound 23, 3-(cyanoamino)-N-methyl-N-[5-(3-pyridyl)-1,3,4-thiadiazol-2-yl]propanamide]
inhibition at 200 ppm [1]: 80 to 100%
inhibition at 200 ppm [2]: 80 to 100%
melting point: 155 to 159 °C

CN(C(=O)CCS)c1nnc(-c2cccnc2)s1 [Compound 25, 3-mercapto-N-methyl-N-(5-(pyridin-3-yl)-1,3,4-thiadiazol-2-yl)propanamide]
inhibition at 200 ppm [1]: 80 to 100%
inhibition at 200 ppm [2]: 80 to 100%
melting point: 149 to 151 °C

CC(=O)SCCC(=O)N(C)c1nnc(-c2cccnc2)s1 [Compound 26, S-3-(methyl(5-(pyridin-3-yl)-1,3,4-thiadiazol-2-yl)-amino)-3-oxopropyl ethanethioate]
inhibition at 200 ppm [1]: 0 to 80%
inhibition at 200 ppm [2]: 0 to 80%
melting point: 133 to 135 °C

CN(C(=O)CCSC(F)(F)F)c1nnc(-c2cccnc2)s1 [Compound 27, N-methyl-N-(5-(pyridin-3-yl)-1,3,4-thiadiazol-2-yl)-3-(trifluoromethylthio)propanamide]
inhibition at 200 ppm [1]: 0 to 80%
inhibition at 200 ppm [2]: 80 to 100%

CSCC(C)C(=O)N(C)c1nnc(-c2cccnc2)s1 (stereo not shown) [Compound 28, N-2-Dimethyl-3-(methylthio)-N-(5-(pyridin-3-yl)-1,3,4-thiadiazol-2-yl)propanamide]
inhibition at 200 ppm [1]: 80 to 100%
inhibition at 200 ppm [3]: 0 to 80%
inhibition at 200 ppm [2]: 80 to 100%

CN(C(=O)CCNC(=O)OCc1ccccc1)c1nnc(-c2cccnc2)s1 [Compound 30]
inhibition at 200 ppm [1]: < 0%
inhibition at 200 ppm [2]: 0 to 80%

CN(CCC(=O)N(C)c1nnc(-c2cccnc2)s1)C(=O)OCc1ccccc1 [Compound 31]
inhibition at 200 ppm [1]: < 0%
inhibition at 200 ppm [2]: < 0%

CN(C(=O)C(C)(C)C[S+](C)[O-])c1nnc(-c2cccnc2)s1 (stereo not shown) [Compound 32]
inhibition at 200 ppm [1]: 80 to 100%
inhibition at 200 ppm [3]: 80 to 100%
inhibition at 200 ppm [2]: 80 to 100%

CN(C(=O)C(C)(C)CS(C)(=O)=O)c1nnc(-c2cccnc2)s1 [Compound 33]
inhibition at 200 ppm [1]: 80 to 100%
inhibition at 200 ppm [3]: 0 to 80%
inhibition at 200 ppm [2]: 80 to 100%

CSCC(C)(C)C(=O)Nc1nnc(-c2cccnc2)s1 [Compound 35]
inhibition at 200 ppm [1]: 0 to 80%
inhibition at 200 ppm [2]: 80 to 100%
melting point: 182 to 188 °C

CC(C)(CS(C)(=O)=O)C(=O)Nc1nnc(-c2cccnc2)s1 [Compound 36]
inhibition at 200 ppm [1]: 0 to 80%
inhibition at 200 ppm [2]: 80 to 100%

CN(C(=O)CCS(=O)(=O)Cc1ccccc1)c1nnc(-c2cccnc2)s1 [Compound 40]
inhibition at 200 ppm [1]: < 0%
inhibition at 200 ppm [2]: < 0%
melting point: 198 to 201 °C

CN(C(=O)CCN)c1nnc(-c2cccnc2)s1 [Compound 41, 3-amino-N-methyl-N-(5-(pyridin-3-yl)-1,3,4-thiadiazol-2-yl)propanamide]
inhibition at 200 ppm [1]: 0 to 80%
inhibition at 200 ppm [2]: 80 to 100%
melting point: 110 to 112 °C

CSCCCN(C(C)=O)c1nnc(-c2cccnc2)s1 [Compound 47]
inhibition at 200 ppm [1]: < 0%
inhibition at 200 ppm [2]: 0 to 80%

CN(C(=O)OCCS(C)(=O)=O)c1nnc(-c2cccnc2)s1 [Compound 52]
inhibition at 200 ppm [1]: 0 to 80%
inhibition at 200 ppm [2]: 0 to 80%
melting point: 198 to 200 °C

CSCOC(=O)N(C)c1nnc(-c2cccnc2)s1 [Compound 54, methylthiomethyl methyl(5-(pyridin-3-yl)-1,3,4-thiadiazol-2-yl)carbamate]
inhibition at 200 ppm [1]: < 0%
inhibition at 200 ppm [2]: 0 to 80%

CSC(=O)N(C)c1nnc(-c2cccnc2)s1 [Compound 55, S-methyl methyl(5-(pyridin-3-yl)-1,3,4-thiadiazol-2-yl)carbamothioate]
inhibition at 200 ppm [1]: < 0%
inhibition at 200 ppm [2]: 0 to 80%
melting point: 192 to 194 °C

CSCC(Cc1ccccc1)C(=O)N(C)c1nnc(-c2cccnc2)s1 (stereo not shown) [Compound 57]
inhibition at 200 ppm [1]: 0 to 80%
inhibition at 200 ppm [2]: 0 to 80%

CSCCC(=O)N(c1ccccc1)c1nnc(-c2cccnc2)s1 [Compound 58]
inhibition at 200 ppm [2]: < 0%
melting point: 117 to 120 °C

COC(=O)CCC(=O)N(c1ccccc1)c1nnc(-c2cccnc2)s1 [Compound 59]
inhibition at 200 ppm [1]: < 0%
inhibition at 200 ppm [2]: 0 to 80%
melting point: 152 to 155 °C

CSCCC(=O)N(C)c1nnc(-c2cnccc2C(F)(F)F)s1 [Compound 60]
inhibition at 200 ppm [1]: < 0%
inhibition at 200 ppm [2]: 0 to 80%

CSCCN(C)C(=O)N(C)c1nnc(-c2cncc(F)c2)s1 [Compound 83, 1-[5-(5-fluoro-pyridin-3-yl)-[1,3,4]thiadiazol-2-yl]-1,3-dimethyl-3-(2-methylsulfanyl-ethyl)-urea]
inhibition at 200 ppm [1]: 80 to 100%
inhibition at 200 ppm [3]: 0 to 80%

CSCCNC(=S)N(C)c1nnc(-c2cncc(F)c2)s1 [Compound 86, 1-[5-(5-fluoro-pyridin-3-yl)-[1,3,4]thiadiazol-2-yl]-1-methyl-3-(2-methylsulfanyl-ethyl)-thiourea]
inhibition at 200 ppm [1]: 80 to 100%
inhibition at 200 ppm [3]: 80 to 100%

CCOC(=O)N(C)c1nnc(-c2cncc(F)c2)s1 [Compound 87]
inhibition at 200 ppm [3]: 80 to 100%

CSCCC(=O)N(C)c1nnc(-c2ccncc2)s1 [Compound 96]
inhibition at 200 ppm [2]: 0 to 80%
melting point: 152 to 154 °C

COC(=O)CCC(=O)N(C)c1nnc(-c2ccncc2)s1 [Compound 97]
inhibition at 200 ppm [1]: < 0%
inhibition at 200 ppm [2]: 0 to 80%
melting point: 175 to 177 °C

CSCCC(=O)N(CC1CC1)c1nnc(-c2cccnc2)s1 [Compound 98]
inhibition at 200 ppm [1]: 80 to 100%
inhibition at 200 ppm [3]: < 0%

Source: patent publication US8912338B2, “Pesticidal compositions” (Dow AgroSciences LLC, priority 2010, dated 2014)
